From PMC4286281, “Profiling of the Tox21 Chemical Collection for Mitochondrial Function to Identify Compounds that Acutely Decrease Mitochondrial Membrane Potential” (Environmental Health Perspectives, 2014)
Where a name gives a salt, the structure may show the parent alone. Read-outs that look alike come from different tables or passages of the source.

Test system: mitochondrial membrane potential (MMP) in HepG2 cells
Experiment: qHTS mitochondrial membrane potential (MMP) assay with m-MPI dye, multiplexed with CellTiter-Glo cell viability
Type: cell-based, human
Conditions: for Emax: read-out: Efficacy; for MMP assay activity outcome (active antagonist / inactive / inconclusive): call from triplicate runs, multichannel readout and cell viability
[1] = Homo sapiens, HepG2, 1 h, read-out: Potency
[2] = Homo sapiens, HepG2 cells, 1 hr treatment, ratio 590 nm/535 nm, read-out: IC50 in the MMP assay (decrease of MMP)
[3] = Table S4, 20 most potent active compounds for the MMP screen, HepG2, 1 hr
[4] = Table S4, 20 most potent active compounds for the MMP screen, HepG2, 1 hr, read-out: Potency
[5] = HepG2 cells, 1 hr treatment, ratio 590 nm/535 nm, read-out: IC50 in the MMP assay (decrease of MMP)

## Nc1ccc(N)c2c1C(=O)c1ccccc1C2=O [1,4-Diaminoanthraquinone]
Homo sapiens, HepG2, 1 h
  Emax: 82%
[1]
  IC50: 33.1 nM

## O=C1c2c(O)ccc([N+](=O)[O-])c2C(=O)c2c([N+](=O)[O-])ccc(O)c21 [1,8-Dihydroxy-4,5-dinitroanthraquinone]
  Efficacy: 86.4%
read-out: Potency
  IC50: 73.4 nM

## O=C(c1ccccc1O)c1ccccc1O [2,2´-dihydroxybenzophenone]
[2]
  IC50: 14100 nM

## Oc1c(Cl)c(Cl)c(Cl)c(Cl)c1Cl [2,3,4,5,6-pentachlorophenol]
HepG2 cells, 1 hr treatment
  MMP assay activity outcome (active antagonist / inactive / inconclusive): active

## NNc1nc(-c2ccc(N)cc2)cs1 [2-Hydrazino-4-(4-aminophenyl) thiazole]
[3]
  Efficacy: 82.5%
[4]
  IC50: 63.5 nM

## COc1ccc(C(=O)c2ccccc2)c(O)c1 [2-hydroxy-4-methoxybenzophenone]
HepG2 cells, 1 hr treatment
  MMP assay activity outcome (active antagonist / inactive / inconclusive): not active

## O=C(c1ccccc1)c1ccccc1O [2-hydroxybenzophenone]
HepG2 cells, 1 hr treatment
  MMP assay activity outcome (active antagonist / inactive / inconclusive): inactive

## O=C(c1ccccc1)c1cccc(O)c1 [3-hydroxybenzophenone]
[2]
  IC50: 27700 nM

## O=C(c1ccc(Cl)cc1)c1ccc(Cl)cc1 [4,4´-dichlorobenzophenone]
HepG2 cells, 1 hr treatment
  MMP assay activity outcome (active antagonist / inactive / inconclusive): inactive

## O=C(c1ccc(O)cc1)c1ccc(O)cc1 [4,4´-dihydoxybenzophenone]
HepG2 cells, 1 hr treatment
  MMP assay activity outcome (active antagonist / inactive / inconclusive): inconclusive

## CC(C)(c1ccccc1)c1ccc(O)cc1 [4-(1-methyl-1-phenylethyl)phenol]
HepG2 cells, 1 hr treatment
  MMP assay activity outcome (active antagonist / inactive / inconclusive): active

## Nc1ccc(O)cc1 [4-aminophenol]
HepG2 cells, 1 hr treatment
  MMP assay activity outcome (active antagonist / inactive / inconclusive): active

## O=C(c1ccccc1)c1ccc(O)cc1 [4-hydroxybenzophenone]
[2]
  IC50: 41300 nM

## Cc1ccc(C(=O)c2ccccc2)cc1 [4-methylbenzophenone]
HepG2 cells, 1 hr treatment
  MMP assay activity outcome (active antagonist / inactive / inconclusive): inactive

## O=C(c1ccccc1)c1ccccc1 [Benzophenone]
HepG2 cells, 1 hr treatment
  MMP assay activity outcome (active antagonist / inactive / inconclusive): inactive

## CCC[CH2][Sn]([CH2]CCC)([CH2]CCC)[O][Sn]([CH2]CCC)([CH2]CCC)[CH2]CCC [Bis(tributyltin)oxide]
  Efficacy: 112.1%
  Potency rank in the MMP screen: among the most potent compounds
read-out: Potency
  IC50: 91.1 nM

## Cl.N=C1C=CC(=C(c2ccc(N)cc2)c2ccc(N)cc2)C=C1 [C.I. Basic red 9 monohydrochloride]
HepG2 cells, 1 hr treatment
  Potency rank in the MMP screen: among the most potent compounds
[3]
  Efficacy: 95.3%
[4]
  IC50: 77 nM

## CCOCn1c(-c2ccc(Cl)cc2)c(C#N)c(Br)c1C(F)(F)F [Chlorfenapyr]
Homo sapiens, HepG2, 1 h
  Emax: 105%
[1]
  IC50: 74.1 nM

## CCN1/C(=C/C=C/C=C/c2sc3ccccc3[n+]2CC)Sc2ccccc21 [Dithiazanine iodide]
Homo sapiens, HepG2, 1 h
  Emax: 85.4%
[1]
  IC50: 95.8 nM

## N#CC(C#N)=NNc1ccc(OC(F)(F)F)cc1 [FCCP, carbonyl cyanide 4-(trifluoromethoxy) phenylhydrazone, reference compound]
Homo sapiens, HepG2, 1 h, read-out: IC50 of the positive control, decrease of MMP (mean ± SD)
  IC50: 110 ± 70 nM

## O=C1OC2(c3ccc(O)cc3Oc3cc(O)ccc32)c2ccccc21 [Fluorescein]
Homo sapiens, HepG2, 1 h
  Emax: 112%
[1]
  IC50: 105 nM

## CN(C)c1ccc(C(=C2C=CC(=[N+](C)C)C=C2)c2ccc(N(C)C)cc2)cc1 [Gentian violet]
Homo sapiens, HepG2, 1 h
  Emax: 91.9%
[1]
  IC50: 78.8 nM

## O=C(Nc1ccc([N+](=O)[O-])cc1Cl)c1cc(Cl)ccc1O [Niclosamide, reference compound]
Homo sapiens, HepG2, 1 h
  Emax: 97.7%
[1]
  IC50: 26.3 nM

## COc1cccc2c1C(=O)c1c(O)c3c(c(O)c1C2=O)C[C@@](O)(C(=O)CO)C[C@@H]3O[C@H]1C[C@H](N)[C@H](O[C@@H]2CCCCO2)[C@H](C)O1 [Pirarubicin, reference compound]
[2]
  IC50: 600 nM

## C[C@@H]1O[C@@H](O[C@@H]2C=C3CC[C@@H]4[C@H](CC[C@]5(C)[C@@H](c6ccc(=O)oc6)CC[C@]45O)[C@@]3(C)CC2)[C@H](O)[C@H](O)[C@H]1O [Proscillaridin, reference compound]
HepG2 cells, 1 hr treatment
  Potency rank in the MMP screen: among the most potent compounds
Homo sapiens, HepG2, 1 h
  Emax: 72.4%
[1]
  IC50: 86.8 nM

## CCC[CH2][Sn]([Cl])([CH2]CCC)[CH2]CCC [Tributyltin chloride]
  Efficacy: 96.9%
  Potency rank in the MMP screen: among the most potent compounds
read-out: Potency
  IC50: 107 nM

## CC(=O)[O][Sn]([c]1ccccc1)([c]1ccccc1)[c]1ccccc1 [Triphenyltin acetate]
  Efficacy: 98.7%
HepG2 cells, 1 hr treatment
  Potency rank in the MMP screen: among the most potent compounds
read-out: Potency
  IC50: 117 nM

## [OH-].c1cc[c]([Sn+]([c]2ccccc2)[c]2ccccc2)cc1 [Triphenyltin hydroxide]
  Efficacy: 94.7%
HepG2 cells, 1 hr treatment
  Potency rank in the MMP screen: among the most potent compounds
read-out: Potency
  IC50: 122 nM

## CC[C@@]1(O)C[C@H](O[C@H]2C[C@H](N(C)C)[C@H](O[C@H]3C[C@H](O)[C@H](O[C@H]4CCC(=O)[C@H](C)O4)[C@H](C)O3)[C@H](C)O2)c2c(cc3c(c2O)C(=O)c2c(O)cccc2C3=O)[C@H]1C(=O)OC [aclarubicin hydrochloride, reference compound]
HepG2 cells, 1 hr treatment
  MMP assay activity outcome (active antagonist / inactive / inconclusive): active

## COc1cccc2c1C(=O)c1c(O)c3c(c(O)c1C2=O)C[C@@](O)(C(=O)CO)C[C@@H]3O[C@H]1C[C@H](N)[C@H](O)[C@H](C)O1 [adriamycin hydrochloride, reference compound]
HepG2 cells, 1 hr treatment
  MMP assay activity outcome (active antagonist / inactive / inconclusive): inactive

## ClC1=C(Cl)C2(Cl)C3C4C=CC(C4)C3C1(Cl)C2(Cl)Cl (stereo not shown) [aldrin]
HepG2 cells, 1 hr treatment
  MMP assay activity outcome (active antagonist / inactive / inconclusive): active as antagonists

## CCN=C1C=CC(=C(c2ccc(N(CC)CC)cc2)c2ccc(N(CC)CC)cc2)c2ccccc21.Cl [basic blue 7, Basic blue 7]
HepG2 cells, 1 hr treatment
  Potency rank in the MMP screen: among the most potent compounds
[5]
  IC50: 18.5 nM
[3]
  Efficacy: 86.6%

## CCC/C=C/C=C/C(=O)O[C@H]1/C(=C/C(=O)OC)C[C@H]2C[C@H]([C@@H](C)O)OC(=O)C[C@H](O)C[C@@H]3C[C@H](OC(C)=O)C(C)(C)[C@](O)(C[C@@H]4C/C(=C/C(=O)OC)C[C@H](/C=C/C(C)(C)[C@]1(O)O2)O4)O3 [bryostatin 1, Bryostatin 1, reference compound]
Homo sapiens, HepG2, 1 h
  Emax: 105%
[1]
  IC50: 9.58 nM
[2]
  IC50: 9.6 nM

## CCN1/C(=C/C=C/c2ccc3ccccc3[n+]2CC)C=Cc2ccccc21.[I-] [carbocyanine, Carbocyanine]
[3]
  Efficacy: 90.7%
[4]
  IC50: 14.7 nM

## O=C(O)C1C(C(=O)O)C2(Cl)C(Cl)=C(Cl)C1(Cl)C2(Cl)Cl (stereo not shown) [chlorendic acid]
HepG2 cells, 1 hr treatment
  MMP assay activity outcome (active antagonist / inactive / inconclusive): inactive

## CO[C@@H]1[C@H](O)C[C@@H](O[C@@H]2C[C@H](Oc3cc4cc5c(c(O)c4c(O)c3C)C(=O)[C@@H](O[C@H]3C[C@@H](O[C@H]4C[C@@H](O[C@H]6C[C@](C)(O)[C@@H](OC(C)=O)[C@H](C)O6)[C@H](O)[C@@H](C)O4)[C@H](O)[C@@H](C)O3)[C@H]([C@H](OC)C(=O)[C@@H](O)[C@@H](C)O)C5)O[C@H](C)[C@@H]2OC(C)=O)O[C@@H]1C [chromomycin A3]
HepG2 cells, 1 hr treatment
  MMP assay activity outcome (active antagonist / inactive / inconclusive): active

## O=[N+]([O-])c1ccc(O)c([N+](=O)[O-])c1 [dinitrophenol, reference compound]
HepG2 cells, 1 hr treatment
  MMP assay activity outcome (active antagonist / inactive / inconclusive): inconclusive antagonist (cytotoxic)

## CCCCCCCCCCCCOC(=O)c1ccc(O)cc1 [dodecylparaben]
[5]
  IC50: 4200 nM

## COC(=O)c1ccc(O)cc1 [methylparaben]
HepG2 cells, 1 hr treatment
  MMP assay activity outcome (active antagonist / inactive / inconclusive): inactive

## COc1ccc(C(=O)c2ccc(C)cc2)c(O)c1 [mexenone]
HepG2 cells, 1 hr treatment
  MMP assay activity outcome (active antagonist / inactive / inconclusive): not active

## C[C@@H]1O[C@@H](O[C@H]2C[C@@H](O)[C@]3(CO)[C@H]4[C@H](O)C[C@]5(C)[C@@H](C6=CC(=O)OC6)CC[C@]5(O)[C@@H]4CC[C@]3(O)C2)[C@H](O)[C@H](O)[C@H]1O [ouabain, reference compound]
HepG2 cells, 1 hr treatment
  Potency rank in the MMP screen: among the most potent compounds

## COc1ccc(Cc2nccc3cc(OC)c(OC)cc23)cc1OC [papaverine, reference compound]
HepG2 cells, 1 hr treatment
  MMP assay activity outcome (active antagonist / inactive / inconclusive): inconclusive antagonist (cytotoxic)

## CCCCCOC(=O)c1ccc(O)cc1 [pentylparaben]
[2]
  IC50: 8700 nM

## CCCOC(=O)c1ccc(O)cc1 [propylparaben]
[2]
  IC50: 38600 nM

## C=C(C)[C@H]1Cc2c(ccc3c2O[C@@H]2COc4cc(OC)c(OC)cc4[C@@H]2C3=O)O1 [rotenone, reference compound]
HepG2 cells, 1 hr treatment
  MMP assay activity outcome (active antagonist / inactive / inconclusive): inconclusive antagonist (cytotoxic)

## CC1(C)C(C(Cl)Cl)C2(Cl)C(Cl)C(Cl)C1(Cl)C2(Cl)Cl (stereo not shown) [toxaphene]
HepG2 cells, 1 hr treatment
  MMP assay activity outcome (active antagonist / inactive / inconclusive): active as antagonists

## CCCCC(=O)OCC(=O)[C@]1(O)Cc2c(O)c3c(c(O)c2[C@@H](O[C@H]2C[C@H](NC(=O)C(F)(F)F)[C@H](O)[C@H](C)O2)C1)C(=O)c1c(OC)cccc1C3=O [valrubicin, reference compound]
[2]
  IC50: 1900 nM

## Methyl violet
  Efficacy: 121.5%
HepG2 cells, 1 hr treatment
  Potency rank in the MMP screen: among the most potent compounds
read-out: Potency
  IC50: 65.3 nM

## plicamycin [reference compound]
HepG2 cells, 1 hr treatment
  MMP assay activity outcome (active antagonist / inactive / inconclusive): active
